{
  "source": "patent US9045524B2",
  "about": "“Selective caspase inhibitors and uses thereof” (NOVAGENESIS FOUNDATION, priority 2009, dated 2015)",
  "key": {"Caspase-3 [1]": {"molecular_target": "T1, Caspase-3 (Homo sapiens (Human), UniProt P42574)", "assay": "Caspase-3 Inhibitor Drug Screening Kit, fluorometric (AFC liberation)", "format": "biochemical"}, "Caspase-3 [2]": {"molecular_target": "T1, Caspase-3", "assay": "Fluorometric enzymatic assay, active recombinant Caspase-3"}, "Caspase-9 [3]": {"molecular_target": "T2, Caspase-9 (Homo sapiens (Human), UniProt P55211)", "assay": "Caspase-9 Inhibitor Drug Screening Kit, fluorometric (AFC liberation)", "format": "biochemical", "conditions": "30-minute incubation at 37° C.; approximations of the average values; read-out: Caspase enzymatic activity, IC50 (uM) Caspase 9"}, "Caspase-5 [4]": {"molecular_target": "T3, Caspase-5 (Homo sapiens (Human), UniProt P51878)", "assay": "Fluorometric enzymatic assay, active recombinant Caspase-5", "format": "biochemical", "conditions": "10-point titration 0.1 nM to 3.3 μM, 30-minute incubation at 37° C.; read-out: IC50 values (μM) Caspase-5", "method": "(§1) . In brief, each compound was serially diluted for a final test concentration range of 0.1 nM to 3.3 μM (10-point titration). Each active recombinant Caspase (Active Recombinant Caspase Set IV™ (BioVision, Cat# K233-10-25)) was added to the respective wells of the 96-well High Efficiency™ plates (Molecular Devices, Cat#75-000-0005), followed by the addition of the diluted test compounds. DMSO (Final=1%) or Z-VAD-FMK (Caspase-Family Inhibitor, Z-VAD-FMK (BioVision, Cat#1010-100), Final concentration=20 uM) was added in the designated wells as a background control or positive inhibitor control respectively. Each dilution of the test compounds was tested in duplicates, whereas the DMSO or Z-VAD-FMK controls were tested in triplicates. The synthetic peptide substrate specific for each Caspase (BioVision) was then added to the respective wells, which when cleaved by the active caspase releases free AFC that can be quantified by fluorometry. After a 30-minute incubation at 37° C., the plates were read using the Flexstation 3™ with a 400 nm excitation filter and a 505 nm emission filter (cutoff at 495 nm). The inhibition efficiency and the IC50 values of the test compounds were then determined by comparing the fluorescence intensity (FI) of the test compounds with that of the DMSO control.\n(§2) The SoftMax Pro Software™ (v5.2 rev C, Molecular Devices) was used for data analysis. The % Inhibition is calculated by: % Inhibition=[FI(DMSO)−FI(test sample)/FI(DMSO)]×100. The % Inhibition vs. Log(concentration) was plotted, and the curve was fitted using the 5-parameter fit of the software."}, "Caspase-4": {"molecular_target": "Caspase-4 (Homo sapiens (Human), UniProt P49662)", "assay": "Fluorometric enzymatic assay, active recombinant Caspase-4"}, "Caspase-5 [5]": {"molecular_target": "T3, Caspase-5", "assay": "Caspase-5 Inhibitor Drug Screening Kit, fluorometric (AFC liberation)", "format": "biochemical", "conditions": "30-minute incubation at 37° C.; approximations of the average values; read-out: Caspase enzymatic activity, IC50 (uM) Caspase 5"}, "Caspase-1": {"molecular_target": "Caspase-1 (Homo sapiens (Human), UniProt P29466)", "assay": "Fluorometric enzymatic assay, active recombinant Caspase-1"}, "Caspase-9 [6]": {"molecular_target": "T2, Caspase-9", "assay": "Fluorometric enzymatic assay, active recombinant Caspase-9", "conditions": "read-out: IC50 values (μM) Caspase-9; 10-point titration 0.1 nM to 3.3 μM, 30-minute incubation at 37° C."}, "Caspase-6": {"molecular_target": "Caspase-6 (Homo sapiens (Human), UniProt P55212)", "assay": "Fluorometric enzymatic assay, active recombinant Caspase-6", "format": "biochemical", "conditions": "10-point titration 0.1 nM to 3.3 μM, 30-minute incubation at 37° C.; read-out: IC50 values (μM) Caspase-6", "method": "as §1, §2"}, "Caspase-10": {"molecular_target": "Caspase-10 (Homo sapiens (Human), UniProt Q92851)", "assay": "Fluorometric enzymatic assay, active recombinant Caspase-10", "conditions": "read-out: IC50 values (μM) Caspase-10; 10-point titration 0.1 nM to 3.3 μM, 30-minute incubation at 37° C."}},
  "data": [
    {"smiles": "CC(C)[C@H](NC(=O)[C@@H](NC(=O)[C@H](CC(=O)O)NC(=O)OCc1ccccc1)c1ccccc1)C(=O)N[C@H](/C=C/S(C)(=O)=O)CC(=O)O", "note": "[Compound 53, Z-Asp-Phg-Val-Aspmethyl vinyl sulfone]", "values": [
      {"measurement": "IC50", "setting": "Caspase-3 [1]; 30-minute incubation at 37° C., approximations of the average values, read-out: Caspase enzymatic activity, IC50 (uM) Caspase 3", "value": 0.06, "unit": "µM"},
      {"measurement": "selectivity of Caspase-3 over Caspase-7 based on IC50 values", "setting": "Caspase-3 [1]; IC50 caspase-7 versus caspase-3", "value": "about 12 fold"},
      {"measurement": "IC50", "setting": "Caspase-3 [1]; read-out: IC50 caspase-3", "value": "0.03 to 0.09", "unit": "µM"},
      {"measurement": "inhibitory activity towards Caspase-3", "setting": "Caspase-3 [2]; FIG. 5", "value": "high inhibitory activity"},
      {"measurement": "IC50", "setting": "Caspase-3 [2]; read-out: IC50 values (μM) Caspase-3, 10-point titration 0.1 nM to 3.3 μM, 30-minute incubation at 37° C.", "value": 0.09, "unit": "µM"},
      {"measurement": "IC50", "setting": "Caspase-9 [3]", "value": "> 10", "unit": "µM"},
      {"measurement": "IC50", "setting": "Caspase-5 [4]", "value": "> 3.33", "unit": "µM"},
      {"measurement": "inhibitory activity towards Caspase-4", "setting": "Caspase-4; FIG. 5", "value": "inhibitory activity"},
      {"measurement": "IC50", "setting": "Caspase-4; read-out: IC50 values (μM) Caspase-4, 10-point titration 0.1 nM to 3.3 μM, 30-minute incubation at 37° C.", "value": 2.8, "unit": "µM"},
      {"measurement": "IC50", "setting": "Caspase-5 [5]", "value": "> 10", "unit": "µM"},
      {"measurement": "inhibitory activity towards Caspase-1", "setting": "Caspase-1; FIG. 5", "value": "inhibitory activity"},
      {"measurement": "IC50", "setting": "Caspase-1; read-out: IC50 values (μM) Caspase-1, 10-point titration 0.1 nM to 3.3 μM, 30-minute incubation at 37° C.", "value": 2.1, "unit": "µM"},
      {"measurement": "IC50", "setting": "Caspase-9 [6]", "value": "> 3.33", "unit": "µM"},
      {"measurement": "IC50", "setting": "Caspase-6", "value": "> 3.33", "unit": "µM"},
      {"measurement": "IC50", "setting": "Caspase-10", "value": "> 3.33", "unit": "µM"}
    ]}
  ]
}
